According to paper PMC9511441, “Semisynthetic teicoplanin derivatives with dual antimicrobial activity against SARS-CoV-2 and multiresistant bacteria” (Scientific Reports, 2022):
≈ marks a conversion by molar mass, not a printed value. Where two headings read alike, the source gives them in different places.

Experiments:
Format in all cases: cell-based
E. faecalis = test: MIC, broth microdilution; details: for MIC: Enterococcus faecalis
Source text: (§1) We determined the minimal inhibitory concentrations (MIC) of the teicoplanin conjugates for a large panel of Gram-positive bacterial strains, using vancomycin, unmodified teicoplanin, dalbavancin and oritavancin as reference compounds. […] The bacterial strains (see Suppl. Table S5 for all details) were selected to achieve maximum diversity of multidrug-resistance and include strains with known mechanisms of resistance to glycopeptides in clinical use. The S. epidermidis and S. haemolyticus strains resistant to dalbavancin and oritavancin were obtained in vitro from clinical isolates sensitive to the glycopeptide antibiotics.

S. aureus = test: MIC, broth microdilution; details: for MIC: Staphylococcus aureus
Source text: as §1

S. haemolyticus = test: MIC, broth microdilution; details: for MIC: Staphylococcus haemolyticus
Source text: as §1

S.pyogenes = test: MIC, broth microdilution; details: for MIC: Streptococcus pyogenes
Source text: as §1

E. faecium = test: microbe, parasite or virus in culture; details: for MIC: Enterococcus faecium
Source text: as §1

S. epidermidis = test: microbe, parasite or virus in culture; details: for MIC: Staphylococcus epidermidis
Source text: as §1

SARS-CoV-2 pseudovirus [1] = test: microbe, parasite or virus in culture; details: Vero cells, luciferase signal, mean ± SEM of 3 tests, read-out: EC50, inhibition of SARS-CoV-2 pseudovirus entry in Vero cells
SARS-CoV-2 pseudovirus [2] = test: microbe, parasite or virus in culture; details: A549-AT cells (ACE2 and TMPRSS2), luciferase signal, mean ± SEM of 3 tests, read-out: EC50, inhibition of SARS-CoV-2 pseudovirus entry in A549-AT cells
[3] = Severe acute respiratory syndrome-related coronavirus

CN[C@H]1C(=O)N[C@@H]2Cc3ccc(cc3)Oc3cc4cc(c3O[C@@H]3O[C@H](C(=O)O)[C@@H](O)[C@H](O)[C@H]3NC(=O)CCCCCCCCC(C)C)Oc3ccc(cc3Cl)[C@@H](O)[C@@H]3NC(=O)[C@H](NC(=O)[C@@H]4NC(=O)[C@@H](NC2=O)c2cc(cc(O)c2Cl)Oc2cc1ccc2O)c1ccc(O)c(c1)-c1c(O[C@H]2O[C@H](CO)[C@@H](O)[C@H](O)[C@@H]2O)cc(O)cc1[C@@H](C(=O)NCCCN(C)C)NC3=O [DALB, dalbavancin, reference compound]
Average MIC value (E. faecalis; E. faecalis VAN^R,TEI^R/VanA, 1 strain): 64 µg/mL
Average MIC value (E. faecalis; E. faecalis VAN^S, TEI^S, 2 strains): 0.25 µg/mL
MIC value (E. faecalis; E.faecalis JH2-2): 0,25 µg/ml
MIC value (E. faecalis; E.faecalis OG1RF): 0,25 µg/ml
MIC value (E. faecalis; E.faecalis V583, VAN,TEI/VanA): 64 µg/mL (≈ 35.2 µM)
MIC value (S. aureus; S. aureus 73OL, MRSA): 0,125 µg/ml
MIC value (S. aureus; S. aureus 214OL, MRSA): 0,125 µg/ml
MIC value (S. aureus; S. aureus 1041OL, MRSA): 0,03125 µg/ml
MIC value (S. aureus; S. aureus A6918, MRSA): 0,125 µg/ml
MIC value (S. aureus; S. aureus A6919, MRSA): 0,0625 µg/ml
MIC value (S. aureus; S. aureus ATCC29213, MSSA): 0,125 µg/ml
Average MIC value (S. aureus; S. aureus CA-MRSA, 1 strain): 0.0625 µg/mL
Average MIC value (S. aureus; S. aureus MRSA, 7 strains): 0.1 µg/mL
MIC value (S. aureus; S. aureus MSSA476, MSSA): 0,125 µg/ml
Average MIC value (S. aureus; S. aureus MSSA, 4 strains): 0.125 µg/mL
MIC value (S. aureus; S. aureus Mu50, MRSA): 0,125 µg/ml
MIC value (S. aureus; S. aureus N315, MRSA): 0,125 µg/ml
MIC value (S. aureus; S. aureus Newman, MSSA): 0,125 µg/ml
MIC value (S. aureus; S. aureus SA564, MSSA): 0,125 µg/ml
MIC value (S. aureus; S. aureus USA300, CA-MRSA): 0,0625 µg/ml
Average MIC value (S. haemolyticus; S. haemolyticus mecA, 6 strains): 3.83 µg/mL
MIC value (S. haemolyticus; S.haemolyticus DALB_R1, mecA): 2 µg/mL (≈ 1.1 µM)
MIC value (S. haemolyticus; S.haemolyticus DALB_R2, mecA): 8 µg/mL (≈ 4.4 µM)
MIC value (S. haemolyticus; S.haemolyticus DALB_R3, mecA): 2 µg/mL (≈ 1.1 µM)
MIC value (S. haemolyticus; S.haemolyticus DALB_R4, mecA): 2 µg/mL (≈ 1.1 µM)
MIC value (S. haemolyticus; S.haemolyticus DALB_R5, mecA): 1 µg/mL (≈ 0.55 µM)
MIC value (S. haemolyticus; S.haemolyticus ORI_R1, mecA): 8 µg/mL (≈ 4.4 µM)
MIC value (S.pyogenes; S.pyogenes H232): 0,0625 µg/ml
MIC value (S.pyogenes; S.pyogenes H550): 0,25 µg/ml
MIC value (S.pyogenes; S.pyogenes H578): 0,25 µg/ml
Average MIC value (E. faecium; E. faecium VAN^R,TEI^R/VanA, 8 strains): 48 µg/mL
Average MIC value (E. faecium; E. faecium VAN^S, TEI^S, 1 strain): 0.25 µg/mL
MIC value (E. faecium; E.faecium E335, VAN,TEI,LNZ/VanA): 64 µg/mL (≈ 35.2 µM)
MIC value (E. faecium; E.faecium E355, VAN,TEI,LNZ/VanA): 32 µg/mL (≈ 17.6 µM)
MIC value (E. faecium; E.faecium E832, VAN,TEI,LNZ/VanA): 64 µg/mL (≈ 35.2 µM)
MIC value (E. faecium; E.faecium E854, VAN,TEI,LNZ/VanA): 32 µg/mL (≈ 17.6 µM)
MIC value (E. faecium; E.faecium E859, VAN,TEI,LNZ/VanA): 32 µg/mL (≈ 17.6 µM)
MIC value (E. faecium; E.faecium E1114, VAN,TEI,LNZ/VanA): 64 µg/mL (≈ 35.2 µM)
MIC value (E. faecium; E.faecium E1131, VAN,TEI,LNZ/VanA): 64 µg/mL (≈ 35.2 µM)
MIC value (E. faecium; E.faecium E1132, VAN,TEI,LNZ/VanA): 32 µg/mL (≈ 17.6 µM)
MIC value (E. faecium; E.faecium TX0016): 0,25 µg/ml
Average MIC value (S. epidermidis; S. epidermidis mecA, 6 strains): 1.77 µg/mL
MIC value (S. epidermidis; S.epidermidis ORI_R1, mecA): 4 µg/mL (≈ 2.2 µM)
MIC value (S. epidermidis; S.epidermidis ORI_R2, mecA): 4 µg/mL (≈ 2.2 µM)
MIC value (S. epidermidis; S.epidermidis ORI_R3, mecA): 2 µg/mL (≈ 1.1 µM)
MIC value (S. epidermidis; S.epidermidis ORI_R4, mecA): 0,25 µg/ml
MIC value (S. epidermidis; S.epidermidis TEI_R1, mecA): 0,25 µg/ml
MIC value (S. epidermidis; S.epidermidis TEI_R2, mecA): 0,125 µg/ml

CCOC(=O)[C@H]1O[C@@H]1C(=O)N[C@@H](CC(C)C)C(=O)NCCC(C)C [Compound E64d, reference compound]
EC50 (SARS-CoV-2 pseudovirus [1]): 1300 ± 1200 nM
EC50 (SARS-CoV-2 pseudovirus [2]): > 20000 nM

CN(C)C(=O)COC(=O)Cc1ccc(OC(=O)c2ccc(NC(=N)N)cc2)cc1 [Camostat, camostat, reference compound]
EC50 (SARS-CoV-2 pseudovirus [1]; [3]): > 20000 nM
EC50 (SARS-CoV-2 pseudovirus [2]; [3]): 490 ± 50 nM

CN[C@H](CC(C)C)C(=O)N[C@H]1C(=O)N[C@@H](CC(N)=O)C(=O)N[C@H]2C(=O)N[C@H]3C(=O)N[C@H](C(=O)N[C@H](C(=O)O)c4cc(O)cc(O)c4-c4cc3ccc4O)[C@H](O)c3ccc(c(Cl)c3)Oc3cc2cc(c3O[C@@H]2O[C@H](CO)[C@@H](O)[C@H](O)[C@H]2O[C@H]2C[C@](C)(N)[C@H](O)[C@H](C)O2)Oc2ccc(cc2Cl)[C@H]1O [VAN, vancomycin, reference compound]
MIC (E. faecalis; read-out: Average MIC value, E. faecalis VAN^R,TEI^R/VanA, 1 strain): > 64 µg/mL
MIC (E. faecalis; read-out: Average MIC value, E. faecalis VAN^S, TEI^S, 2 strains): 0.25 µg/mL (≈ 0.173 µM)
MIC (E. faecalis; read-out: MIC value, E.faecalis JH2-2): 0.25 µg/mL (≈ 0.173 µM)
MIC (E. faecalis; read-out: MIC value, E.faecalis OG1RF): 0.25 µg/mL (≈ 0.173 µM)
MIC (E. faecalis; read-out: MIC value, E.faecalis V583, VAN,TEI/VanA): > 64 µg/mL
MIC (S. aureus; ATCC 29213 / MSSA, read-out: MIC value, S. aureus ATCC29213, MSSA): 1 µg/mL (≈ 0.69 µM)
MIC (S. aureus; MRSA / USA300, read-out: MIC value, S. aureus USA300, CA-MRSA): 0.25 µg/mL (≈ 0.173 µM)
MIC (S. aureus; MRSA, read-out: Average MIC value, S. aureus CA-MRSA, 1 strain): 0.25 µg/mL (≈ 0.173 µM)
MIC (S. aureus; MRSA, read-out: Average MIC value, S. aureus MRSA, 7 strains): 1.25 µg/mL (≈ 0.863 µM)
MIC (S. aureus; MRSA, read-out: MIC value, S. aureus 73OL, MRSA): 1 µg/mL (≈ 0.69 µM)
MIC (S. aureus; MRSA, read-out: MIC value, S. aureus 214OL, MRSA): 1 µg/mL (≈ 0.69 µM)
MIC (S. aureus; MRSA, read-out: MIC value, S. aureus 1041OL, MRSA): 1 µg/mL (≈ 0.69 µM)
MIC (S. aureus; MRSA, read-out: MIC value, S. aureus A6918, MRSA): 1 µg/mL (≈ 0.69 µM)
MIC (S. aureus; MRSA, read-out: MIC value, S. aureus A6919, MRSA): 0.25 µg/mL (≈ 0.173 µM)
MIC (S. aureus; MRSA, read-out: MIC value, S. aureus Mu50, MRSA): 4 µg/mL (≈ 2.76 µM)
MIC (S. aureus; MRSA, read-out: MIC value, S. aureus N315, MRSA): 0.5 µg/mL (≈ 0.345 µM)
MIC (S. aureus; MSSA / NEWMAN, read-out: MIC value, S. aureus Newman, MSSA): 0.5 µg/mL (≈ 0.345 µM)
MIC (S. aureus; MSSA, read-out: Average MIC value, S. aureus MSSA, 4 strains): 0.625 µg/mL (≈ 0.431 µM)
MIC (S. aureus; MSSA, read-out: MIC value, S. aureus MSSA476, MSSA): 0.5 µg/mL (≈ 0.345 µM)
MIC (S. aureus; MSSA, read-out: MIC value, S. aureus SA564, MSSA): 0.5 µg/mL (≈ 0.345 µM)
MIC (S. haemolyticus; S. haemolyticus mecA, 6 strains, read-out: Average MIC value): 28 µg/mL (≈ 19.3 µM)
MIC (S. haemolyticus; S.haemolyticus DALB_R1, mecA, read-out: MIC value): 32 µg/mL (≈ 22.1 µM)
MIC (S. haemolyticus; S.haemolyticus DALB_R2, mecA, read-out: MIC value): 64 µg/mL (≈ 44.2 µM)
MIC (S. haemolyticus; S.haemolyticus DALB_R3, mecA, read-out: MIC value): 8 µg/mL (≈ 5.52 µM)
MIC (S. haemolyticus; S.haemolyticus DALB_R4, mecA, read-out: MIC value): 32 µg/mL (≈ 22.1 µM)
MIC (S. haemolyticus; S.haemolyticus DALB_R5, mecA, read-out: MIC value): 16 µg/mL (≈ 11 µM)
MIC (S. haemolyticus; S.haemolyticus ORI_R1, mecA, read-out: MIC value): 16 µg/mL (≈ 11 µM)
MIC (S.pyogenes; read-out: MIC value, S.pyogenes H232): 0.0625 µg/mL (≈ 0.0431 µM)
MIC (S.pyogenes; read-out: MIC value, S.pyogenes H550): 0.0625 µg/mL (≈ 0.0431 µM)
MIC (S.pyogenes; read-out: MIC value, S.pyogenes H578): 0.0625 µg/mL (≈ 0.0431 µM)
MIC (E. faecium; read-out: Average MIC value, E. faecium VAN^R,TEI^R/VanA, 8 strains): > 64 µg/mL
MIC (E. faecium; read-out: Average MIC value, E. faecium VAN^S, TEI^S, 1 strain): 0.25 µg/mL (≈ 0.173 µM)
MIC (E. faecium; read-out: MIC value, E.faecium E335, VAN,TEI,LNZ/VanA): > 64 µg/mL
MIC (E. faecium; read-out: MIC value, E.faecium E355, VAN,TEI,LNZ/VanA): > 64 µg/mL
MIC (E. faecium; read-out: MIC value, E.faecium E832, VAN,TEI,LNZ/VanA): > 64 µg/mL
MIC (E. faecium; read-out: MIC value, E.faecium E854, VAN,TEI,LNZ/VanA): > 64 µg/mL
MIC (E. faecium; read-out: MIC value, E.faecium E859, VAN,TEI,LNZ/VanA): > 64 µg/mL
MIC (E. faecium; read-out: MIC value, E.faecium E1114, VAN,TEI,LNZ/VanA): > 64 µg/mL
MIC (E. faecium; read-out: MIC value, E.faecium E1131, VAN,TEI,LNZ/VanA): > 64 µg/mL
MIC (E. faecium; read-out: MIC value, E.faecium E1132, VAN,TEI,LNZ/VanA): > 64 µg/mL
MIC (E. faecium; read-out: MIC value, E.faecium TX0016): 0.25 µg/mL (≈ 0.173 µM)
MIC (S. epidermidis; read-out: Average MIC value, S. epidermidis mecA, 6 strains): 6.67 µg/mL (≈ 4.6 µM)
MIC (S. epidermidis; read-out: MIC value, S.epidermidis ORI_R1, mecA): 8 µg/mL (≈ 5.52 µM)
MIC (S. epidermidis; read-out: MIC value, S.epidermidis ORI_R2, mecA): 8 µg/mL (≈ 5.52 µM)
MIC (S. epidermidis; read-out: MIC value, S.epidermidis ORI_R3, mecA): 8 µg/mL (≈ 5.52 µM)
MIC (S. epidermidis; read-out: MIC value, S.epidermidis ORI_R4, mecA): 4 µg/mL (≈ 2.76 µM)
MIC (S. epidermidis; read-out: MIC value, S.epidermidis TEI_R1, mecA): 4 µg/mL (≈ 2.76 µM)
MIC (S. epidermidis; read-out: MIC value, S.epidermidis TEI_R2, mecA): 8 µg/mL (≈ 5.52 µM)
